Results reported in the NIST ThermoML archive (doi:10.1021/acs.jced.5b00242).

Key:
[1] = xn = mol fraction of the nth substance listed; settings: 101 kPa, Liquid; for viscosity: Stabinger Viscometer; for mass density: Vibrating tube method
[2] = refractive index (Na D-line) (dimensionless); xn = mol fraction of the nth substance listed; settings: 101 kPa, Liquid, Standard Abbe refractometry

CCn1cc[n+](C)c1.C[C@H](N)C(=O)[O-] [1-ethyl-3-methylimidazolium L-alaninate] + CCn1cc[n+](C)c1.N#C[C-](C#N)C#N
Settings | mass density, [1] [kg/m3] | refractive index, [2] | viscosity, [1] [mPa·s]
293.15 K, x2 = 0 | 1126.3 | 1.51366 | 382.06
293.15 K, x2 = 0.2506 | 1113.7 | 1.51476 | 146.57
293.15 K, x2 = 0.5 | 1102.2 | 1.51409 | 78.6
293.15 K, x2 = 0.7499 | 1092.9 | 1.51367 | 31.55
298.15 K, x2 = 0 | 1123 | 1.51223 | 263.98
298.15 K, x2 = 0.2506 | 1110.4 | 1.5133 | 107.2
298.15 K, x2 = 0.5 | 1098.9 | 1.51258 | 60.26
298.15 K, x2 = 0.7499 | 1089.3 | 1.5121 | 25.68
303.15 K, x2 = 0 | 1119.8 | 1.51081 | 187.79
303.15 K, x2 = 0.2506 | 1107.1 | 1.51184 | 80.47
303.15 K, x2 = 0.5 | 1095.6 | 1.51107 | 46.89
303.15 K, x2 = 0.7499 | 1085.9 | 1.51053 | 21.18
308.15 K, x2 = 0 | 1116.6 | 1.50937 | 137.47
308.15 K, x2 = 0.2506 | 1104 | 1.51038 | 61.83
308.15 K, x2 = 0.5 | 1092.3 | 1.5095 | 37.29
308.15 K, x2 = 0.7499 | 1082.6 | 1.50893 | 17.74
313.15 K, x2 = 0 | 1113.5 | 1.50793 | 103.54
313.15 K, x2 = 0.2506 | 1100.8 | 1.50888 | 49.16
313.15 K, x2 = 0.5 | 1089.1 | 1.50796 | 30.22
313.15 K, x2 = 0.7499 | 1079.2 | 1.50731 | 14.83
318.15 K, x2 = 0 | 1110.5 | 1.50651 | 79.34
318.15 K, x2 = 0.2506 | 1097.8 | 1.50736 | 38.96
318.15 K, x2 = 0.5 | 1085.9 | 1.50643 | 24.9
318.15 K, x2 = 0.7499 | 1075.9 | 1.50568 | 12.94
323.15 K, x2 = 0 | 1107.5 | 1.50505 | 62.21
323.15 K, x2 = 0.2506 | 1094.6 | 1.5059 | 31.75
323.15 K, x2 = 0.5 | 1082.7 | 1.50488 | 20.83
323.15 K, x2 = 0.7499 | 1072.7 | 1.50401 | 11.23
328.15 K, x2 = 0 | 1104.4 | 1.50358 | 49.69
328.15 K, x2 = 0.2506 | 1091.5 | 1.50436 | 26.27
328.15 K, x2 = 0.5 | 1079.5 | 1.50338 | 17.64
328.15 K, x2 = 0.7499 | 1069.4 | 1.50244 | 9.84
333.15 K, x2 = 0 | 1101.3 | 1.50217 | 40.5
333.15 K, x2 = 0.2506 | 1088.4 | 1.50293 | 22.29
333.15 K, x2 = 0.5 | 1076.3 | 1.50191 | 15.08
333.15 K, x2 = 0.7499 | 1066.1 | 1.50085 | 8.51
338.15 K, x2 = 0 | 1098.3 | 1.50074 | 33.22
338.15 K, x2 = 0.2506 | 1085.3 | 1.50148 | 18.7
338.15 K, x2 = 0.5 | 1073.1 | 1.50039 | 13.09
338.15 K, x2 = 0.7499 | 1062.9 | 1.49926 | 7.74
343.15 K, x2 = 0 | 1095.2 | 1.49932 | 27.72
343.15 K, x2 = 0.2506 | 1082.2 | 1.49997 | 16.04
343.15 K, x2 = 0.5 | 1069.9 | 1.49888 | 11.45
343.15 K, x2 = 0.7499 | 1059.6 | 1.49771 | 6.93
348.15 K, x2 = 0 | 1092.1 | 1.49795 | 23.38
348.15 K, x2 = 0.2506 | 1079.1 | 1.49851 | 13.89
348.15 K, x2 = 0.5 | 1066.6 | 1.49739 | 10.1
348.15 K, x2 = 0.7499 | 1056.3 | 1.49613 | 6.26
353.15 K, x2 = 0 | 1088.9 | 1.49656 | 20.03
353.15 K, x2 = 0.2506 | 1075.9 | 1.49704 | 12.28
353.15 K, x2 = 0.5 | 1063.1 | 1.49589 | 8.93
353.15 K, x2 = 0.7499 | 1052.9 | 1.49456 | 5.45
